The target in one series is T1, human PD-1/PD-L1 binding (Homo sapiens, UniProt Q9NZQ7).
T1 construct: PD-L1-His protein (19 to 238 amino acids) (Abcam #ab167713); purchased Abcam (PD-L1-His); R&D (PD-1-Fc) ab167713; 1086-PD
Briefly: Inhibition of human PD-1/PD-L1 binding (TR-FRET/HTRF). The note with it: TR-FRET, PD-L1-His and PD-1-Fc; read-out: PD-1/PD-L1 binding IC50. In a few lines:
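PD-L1-His (aa 19–238, diluted to 10 nM) and PD-1-Fc (aa 25–167, diluted to 20 nM) incubated with compounds (10 μM or 1 μM top, 3-fold, 11 doses) 60 min at room temperature, then anti-6HIS Eu cryptate/anti-human IgG-XL665 added for 3 h RT or overnight 4 °C. HTRF 665/620 nm ratio gave inhibition and IC50.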
A general note: Time-resolved FRET reads energy transfer from a long-lived donor to a nearby acceptor.

The target in series [1] is T2, PD-L1 protein on the surface of MC38-hPDL1 tumor cells (Homo sapiens, UniProt Q9NZQ7).
T2 construct: expressed in transfected cells; host or cells: MC38-hPDL1 (mouse colon cancer cells)
As to the kind of experiment: Induction of endocytosis of PD-L1 on the surface of tumor cells (flow cytometry). The format is cell-based. The note with it: 16 hours incubation; for Emax: MC38-hPDL1 cells, read-out: MC38 maximum endocytosis rate; for IC50: inducing endocytosis of PD-L1, MC38-hPDL1 cells, read-out: MC38 IC50. The gist of the method: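 IC50 comes from nonlinear fits of endocytosis rate, calculated from the loss of surface PE-anti-CD274 flow signal relative to vehicle. Cells were MC38 mouse colon cancer cells engineered to express high human PD-L1. Compound exposure lasted 16 h at 37 °C, 5% CO2.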
In general terms: In flow cytometry, cells or beads pass a laser one at a time.

Series [2] deals with CHO-PDL1/Jurkat-PD1 cell pathway. As to the kind of experiment: Inhibition of CHO-PDL1/Jurkat-PD1 cell pathway (NFAT luciferase reporter). The format is cell-based. The note with it: for EC50: 6 hours incubation, luciferase signal; for maximal fold induction: relative to the signal value of the non-dosed group, read-out: Maximum induction fold. As to the method: Test Embodiment 3. Inhibitory Effect of the Compounds of the Present Disclosure on CHO-PDL1/Jurkat-PD1 Cell Pathway
Experimental purpose: The purpose of this test embodiment was to test the inhibitory effect of compounds on the CHO-PDL1/Jurkat-PD1 cell pathway.
Experimental method: Two stably transfected cell lines were included in this experiment, CHO-K1 cells stably transfected with PD-L1 and Jurkat cells stably transfected with PD-1 and NFAT luciferase reporter genes. Compounds were incubated with the two cell lines. Then, due to the inhibitory effect on the PD-1/PD-L1 pathway, the activation degree of Jurkat cells changed, so that the level of the reporter gene NFAT in the downstream of Jurkat cells changed, and the level of NFAT was characterized by detecting the signal value of luciferase, so that the inhibitory effect of the test compound on CHO-PDL1/Jurkat-PD1 pathway was characterized.
CHO-PDL1 cells (Promega, #J1252) were cultured to a suitable cell density. After digestion, the cells were resuspended by complete medium to become a suitable density of cell suspension. The cell suspension was plated 100 μL per well on a 96-well plate (Corning, #3610), and placed in a 37° C., 5% CO2 incubator and incubated overnight, and assay medium (RPMI 1640+2% FBS, RPMI 1640 Cat. No.: Gibco, #22400089, FBS Cat. No.: Gibco, #10091148) was used to prepare compound solutions of different concentrations. NFAT-luc2/PD1 Jurkat cells (Promega, #J1252) were collected and resuspended to the appropriate cell density using assay medium. The supernatant of the CHO-PDL1 cell culture plate was aspirated, and 40 μL of the prepared compound solution and 40 μL of resuspended NFAT-luc2/PD1 Jurkat cells were added, and incubated in a 5% CO2 incubator at 37° C. for 6 hours, and the cell plate was taken out, then 40 μL of One-Glo reagent (Promega, #E6120) was added to each well, shaked and mixed well, incubated in the dark at room temperature for 10 minutes, then put into a microplate reader and the luminescence program was used to read the luminescence value of the cell plate.
The EC50 value was fitted according to the compound concentration and the luminescence signal value, and the maximum induction fold of each compound relative to the signal value of the non-dosed group was calculated, as shown in Table 3.

Series [3] is described as follows: Pharmacokinetics test in Balb/C mice. The note with it: male, mouse, po, p.o. 5 mg/kg, plasma. The format is in vivo. Here is the method:
Test Embodiment 6. Pharmacokinetics Test in Balb/C Mice
Taking Balb/C mice as the test animals, the pharmacokinetic behavior in the plasma of mice of the following compound embodiments was studied when orally administered at a dose of 5 mg/kg.
Balb/C Mouse 6/embodiment, male, Shanghai Jisijie Laboratory Animal Co., Ltd., animal production license number (SCXK (Shanghai) 2013-0006 No. 311620400001794).
0.5% HPMC (1% Tween 80), dissolved by sonication, to prepare a clear solution or a homogeneous suspension.
Balb/C mice, male; p.o. after overnight fasting, respectively, at a dose of 5 mg/kg, administered in a volume of 10 mL/kg.
Before and after administration of mice, at 0, 0.5, 1, 2, 4, 6, 8 and 24 hours, 0.1 mL of blood was collected from the orbit, placed in an EDTA-K2 test tube, and centrifuged at 6000 rpm at 4° C. for 6 min to separate the plasma, stored at −80° C.
1) 40 μL of plasma samples were added to 160 μL of acetonitrile for precipitation, mixed and centrifuged at 3500×g for 5 to 20 minutes.
2) 100 μL of the supernatant solution after treatment was taken for LC/MS/MS to analyze the concentration of the compounds to be tested.
2.6 Liquid Phase Analysis • Liquid phase condition: Shimadzu LC-20AD pump • MS conditions: AB Sciex API 4000 Mass Spectrometer • Chromatographic column: phenomenex Gemiu 5 μm C18 50×4.6 mm • Mobile phase: A solution was aqueous 0.1% formic acid solution, B solution was acetonitrile • Flow rate: 0.8 mL/min • Elution time: 0 to 4.0 minutes, the eluent was as follows:
The main parameters of pharmacokinetics were calculated with WinNonlin 8.2, and the results of the mice pharmacokinetic experiments were shown in the following table: […]

A further series concerns the target T3, human PD-L1 protein (Homo sapiens, UniProt Q9NZQ7).
T3 construct: purchased Acro Biosystems PD1-H5229
Briefly: Thermal shift: melting temperature of PD-L1 protein. The format is binding. The note with it: compound 10 μM, PD-L1 protein 2 μM, Tm minus DMSO vehicle control; read-out: ΔTm (° C.). In a few lines: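 Human PD-L1 at 2 μM final was tested in […], 150 mM NaCl with SYPRO Orange, heated 25→95 °C at 0.03 °C/s in a PCR melt-curve run. Tm was taken per treatment; ΔTm is the shift relative to DMSO vehicle.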

From patent US20230105212A1, “BIPHENYL DERIVATIVE INHIBITOR, PREPARATION METHOD THEREFOR AND USE THEREOF” (SHANGHAI HANSOH BIOMEDICAL CO., LTD., priority 2020, published 2023) come the findings set out here.

Molecules are shown by their SMILES.

T1 sequence (Q9NZQ7 19-238): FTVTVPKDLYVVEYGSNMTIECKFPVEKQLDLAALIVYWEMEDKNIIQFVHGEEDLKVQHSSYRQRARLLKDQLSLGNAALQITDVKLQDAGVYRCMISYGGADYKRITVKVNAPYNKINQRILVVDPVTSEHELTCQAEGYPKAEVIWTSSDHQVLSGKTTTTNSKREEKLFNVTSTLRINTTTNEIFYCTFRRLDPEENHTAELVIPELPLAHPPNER
T2 sequence (Q9NZQ7 19-290): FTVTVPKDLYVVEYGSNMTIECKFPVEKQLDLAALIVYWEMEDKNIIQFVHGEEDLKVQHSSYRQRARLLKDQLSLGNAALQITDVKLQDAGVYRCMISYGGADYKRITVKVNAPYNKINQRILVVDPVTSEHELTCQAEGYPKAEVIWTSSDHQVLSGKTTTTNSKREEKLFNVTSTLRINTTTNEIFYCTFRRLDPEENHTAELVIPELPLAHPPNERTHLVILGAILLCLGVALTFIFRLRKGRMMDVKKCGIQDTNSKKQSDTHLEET
T3 sequence (Q9NZQ7 19-238 limits assumed): as the sequence (Q9NZQ7 19-238) above

On to `COc1cc(C(=O)Nc2cccc(-c3cccc(NC(=O)c4nc5c(n4C)CCN(C)C5)c3Cl)c2C)ncc1CNCC(C)O` (stereo in doubt) [Embodiment 38, (S)—N-(2-Chloro-3′-(5-(((2-hydroxypropyl)amino)methyl)-4-methoxypicolinamido)-2′-methyl-[1,1′-biphenyl]-3-yl)-1,5-dimethyl-4,5,6,7-tetrahydro-1H-imidazo[4,5-c]pyridine-2-carboxamide], for which the IC50 on human PD-1/PD-L1 binding was 2.8 nM. Further, in series [1], the Emax came out at 96% and the IC50 was found to be 0.6 nM. Besides, in series [2], the half-maximal effective concentration (EC50) came to 46 nM and the maximal fold induction stood at 3.7.

`COc1cc(C(=O)Nc2cccc(-c3cccc(NC(=O)c4nc5c(n4C)CCN(C)C5)c3Cl)c2C)ncc1CNc1ccnc(C)c1F` [Embodiment 6, N-(2-Chloro-3′-(5-(((3-fluoro-2-methylpyridin-4-yl)amino)methyl)-4-methoxypicolinamido)-2′-methyl-[1,1′-biphenyl]-3-yl)-1,5-dimethyl-4,5,6,7-tetrahydro-1H-imidazo[4,5-c]pyridine-2-carboxamide]: in series [1], the Emax worked out at 93% and the IC50 stood at 1.1 nM. In addition, in series [2], the EC50 was 60 nM and the maximal fold induction was determined as 3.3.

Regarding `COc1cc(C(=O)Nc2cccc(-c3cccc(NC(=O)c4nc5c(n4C)CCN(C)C5)c3Cl)c2C)ncc1CN1CC[C@H](F)C1` [Embodiment 26, (S)—N-(2-Chloro-3′-(5-((3-fluoropyrrolidin-1-yl)methyl)-4-methoxypicolinamido)-2′-methyl-[1,1′-biphenyl]-3-yl)-1,5-dimethyl-4,5,6,7-tetrahydro-1H-imidazo[4,5-c]pyridine-2-carboxamide], in series [2], the EC50 was found to be 90 nM and the maximal fold induction was found to be 3.9.

For `COc1cc(C(=O)Nc2cccc(-c3cccc(NC(=O)c4nc5c(n4C)CCN(C)C5)c3Cl)c2C)ncc1CNC1COC1` [Embodiment 36, N-(2-Chloro-3′-(4-methoxy-5-((oxetan-3-ylamino)methyl)picolinamido)-2′-methyl-[1,1′-biphenyl]-3-yl)-1,5-dimethyl-4,5,6,7-tetrahydro-1H-imidazo[4,5-c]pyridine-2-carboxamide], the IC50 at human PD-1/PD-L1 binding amounted to 5 nM. Further, in series [1], the Emax was found to be 94% and the IC50 amounted to 3.1 nM. In addition, in series [2], the 50% effective concentration (EC50) is 93 nM and the maximal fold induction came to 3.1.

Turning to `COc1cc(C(=O)Nc2cccc(-c3cccc(NC(=O)c4nc5c(n4C)CCN(C)C5)c3Cl)c2C)ncc1CNCCO` [Embodiment 37, N-(2-Chloro-3′-(5-(((2-hydroxyethyl)amino)methyl)-4-methoxypicolinamido)-2′-methyl-[1,1′-biphenyl]-3-yl)-1,5-dimethyl-4,5,6,7-tetrahydro-1H-imidazo[4,5-c]pyridine-2-carboxamide], the IC50 on human PD-1/PD-L1 binding amounted to 1.5 nM. In addition, in series [1], the Emax amounted to 97% and the IC50 came out at 0.6 nM. Moreover, in series [2], the 50% effective concentration (EC50) is 63 nM and the maximal fold induction is 4.8.

In the case of `COc1cc(NCc2cnc(C(=O)Nc3cccc(-c4cccc(NC(=O)c5nc6c(n5C)CCN(CCO)C6)c4Cl)c3C)cc2OC)ccn1` [Embodiment 72, N-(2-Chloro-3′-(4-methoxy-5-(((2-methoxypyridin-4-yl)amino)methyl)picolinamido)-2′-methyl-[1,1′-biphenyl]-3-yl)-5-(2-hydroxyethyl)-1-methyl-4,5,6,7-tetrahydro-1H-imidazo[4,5-c]pyridine-2-carboxamide], in series [1], the Emax was 88% and the IC50 was 6.5 nM. Besides, in series [2], the EC50 came to 73 nM and the maximal fold induction turned out to be 3.1.

As to `CCN1CCc2c(nc(C(=O)Nc3cccc(-c4cccc(NC(=O)c5cc(OC)c(CNc6ccnc(C)c6F)cn5)c4C)c3Cl)n2C)C1` [Embodiment 78, N-(2-Chloro-3′-(5-(((3-fluoro-2-methylpyridin-4-yl)amino)methyl)-4-methoxypicolinamido)-2′-methyl-[1,1′-biphenyl]-3-yl)-5-ethyl-1-methyl-4,5,6,7-tetrahydro-1H-imidazo[4,5-c]pyridine-2-carboxamide], in series [2], a half-maximal response (EC50) required 68 nM and the maximal fold induction was 2.8.

Regarding `COc1nc(-c2cccc(-c3cccc(NC(=O)c4nc5c(n4C)CCN(C)C5)c3Cl)c2Cl)ccc1CN[C@@H]1CCCC[C@@H]1O` [Embodiment 176, N-(2,2′-Dichloro-3′-(5-((((1R,2S)-2-hydroxycyclohexyl)amino)methyl)-6-methoxypyridin-2-yl)-[1,1′-biphenyl]-3-yl)-1,5-dimethyl-4,5,6,7-tetrahydro-1H-imidazo[4,5-c]pyridine-2-carboxamide], the MRT inf in series [3] (read-out: Average residence time MRT0−∞) turned out to be 21.6 h. Also, the AUC(0-t) in series [3] (read-out: Curve area AUC0−t) is 629 ng·h/mL. Moreover, the Cmax in series [3] (read-out: Drug concentration in plasma Cmax) is 55 ng/mL. Also, in series [3] (read-out: Half life t1/2 (converted)), the half-life is 15.2 h. In addition, the Tmax in series [3] (read-out: Peak time tmax) was 2 h. In series [1], the Emax was determined as 97% and the IC50 amounted to 1.2 nM. In addition, on human PD-L1 protein, the shift in melting temperature (ΔTm) at 10 µM is 24.3 °C.

Regarding `COc1nc(-c2cccc(-c3cccc(NC(=O)c4nc5c(n4C4CC4)CCN(C)C5)c3Cl)c2Cl)ccc1CN1CC2(CC(NC(C)=O)C2)C1` [Embodiment 246, N-(3′-(5-((6-Acetylamino-2-azaspiro[3.3]heptan-2-yl)methyl)-6-methoxypyridin-2-yl)-2,2′-dichloro-[1,1′-biphenyl]-3-yl)-1-cyclopropyl-5-methyl-4,5,6,7-tetrahydro-1H-imidazo[4,5-c]pyridine-2-carboxamide], the IC50 at human PD-1/PD-L1 binding was 5.4 nM. The Emax in series [1] was found to be 94%. In addition, on human PD-L1 protein, the ΔTm at 10 µM was 11 °C.

Broadly, the EC50 is the concentration giving half of the maximal effect. High values mean lower potency in that assay, low ones higher potency in that assay. The term Tmax denotes the time from dosing to the highest level. The term ΔTm denotes the change in melting temperature against a reference sample.
